Laboratory results as given in publication PMC7093416, “Selective USP7 inhibition elicits cancer cell killing through a p53-dependent mechanism” (Scientific Reports, 2020).

Test system: panel of 484 cancer cell lines
Experiment: PRISM cancer cell line profiling, 5 days
Type: cell-based
Design: AUC: unit not given beside the values
Protocol: Cancer cell line profiling was performed using the Broad’s PRISM platform. Cell treatment and data analysis were performed as described in Yu et al[42]. Raw Luminex signal was converted to AUC values for each cell line as described. The resulting AUC profile for each compound was modeled against DepMap using the limma package in R[71]. Because hotspot mutation analysis was performed against DepMap, TP53 annotations in Fig. 6c,d are directly from DepMap.

CN1CCN(CCC(=O)Nc2ccc3c(=O)n(CC4(O)CCN(C(=O)[C@H](CCCNC(=O)c5ccc6c(Cl)c7c(nc6c5)CCCC7)Cc5ccccc5)CC4)cnc3c2)CC1 [XL177B]
AUC (8MGBA_CENTRAL_NERVOUS_SYSTEM): 1.054
AUC (22RV1_PROSTATE): 1.093
AUC (42MGBA_CENTRAL_NERVOUS_SYSTEM): 1.146
AUC (253JBV_URINARY_TRACT): 1.057
AUC (253J_URINARY_TRACT): 1.086
AUC (639V_URINARY_TRACT): 1.062
AUC (647V_URINARY_TRACT): 1.143
AUC (769P_KIDNEY): 1.004
AUC (786O_KIDNEY): 1.051
AUC (5637_URINARY_TRACT): 0.9181
AUC (8305C_THYROID): 1.192
AUC (8505C_THYROID): 0.9816
AUC (2313287_STOMACH): 1.329
AUC (A101D_SKIN): 1.213
AUC (A172_CENTRAL_NERVOUS_SYSTEM): 1.079
AUC (A204_SOFT_TISSUE): 1.022
AUC (A375_SKIN): 1.179
AUC (A549_LUNG): 1.079
AUC (A673_BONE): 1.28
AUC (A704_KIDNEY): 1.217
AUC (A2058_SKIN): 1.197
AUC (A2780_OVARY): 1.076
AUC (ABC1_LUNG): 1.075
AUC (ACCMESO1_PLEURA): 0.9927
AUC (ACHN_KIDNEY): 1.273
AUC (AGS_STOMACH): 1.102
AUC (AN3CA_ENDOMETRIUM): 1.099
AUC (ASPC1_PANCREAS): 1.162
AUC (BC3C_URINARY_TRACT): 1.114
AUC (BCPAP_THYROID): 1.195
AUC (BECKER_CENTRAL_NERVOUS_SYSTEM): 1.058
AUC (BEN_LUNG): 1.091
AUC (BFTC905_URINARY_TRACT): 1.11
AUC (BFTC909_KIDNEY): 1.1037
AUC (BHT101_THYROID): 1.056
AUC (BICR6_UPPER_AERODIGESTIVE_TRACT): 0.9836
AUC (BICR16_UPPER_AERODIGESTIVE_TRACT): 1.161
AUC (BICR31_UPPER_AERODIGESTIVE_TRACT): 0.9322
AUC (BICR56_UPPER_AERODIGESTIVE_TRACT): 0.9864
AUC (BT474_BREAST): 1.187
AUC (BT549_BREAST): 0.9575
AUC (BXPC3_PANCREAS): 1.32
AUC (CADOES1_BONE): 1.116
AUC (CAKI1_KIDNEY): 1.162
AUC (CAL12T_LUNG): 1
AUC (CAL27_UPPER_AERODIGESTIVE_TRACT): 1.104
AUC (CAL29_URINARY_TRACT): 1.1383
AUC (CAL51_BREAST): 1.013
AUC (CAL54_KIDNEY): 1.167
AUC (CAL62_THYROID): 1.094
AUC (CAL78_BONE): 1.0528
AUC (CAL120_BREAST): 0.9632
AUC (CALU1_LUNG): 0.8074
AUC (CALU6_LUNG): 1.057
AUC (CAMA1_BREAST): 1.095
AUC (CAOV3_OVARY): 1.1
AUC (CAPAN2_PANCREAS): 1.138
AUC (CCFSTTG1_CENTRAL_NERVOUS_SYSTEM): 0.9645
AUC (CFPAC1_PANCREAS): 1.136
AUC (CHL1_SKIN): 1.081
AUC (CJM_SKIN): 1.284
AUC (CL34_LARGE_INTESTINE): 1.203
AUC (COLO668_LUNG): 1.113
AUC (COLO679_SKIN): 1.002
AUC (COLO680N_OESOPHAGUS): 1.0645
AUC (COLO741_SKIN): 1.159
AUC (COLO783_SKIN): 1.1
AUC (COLO792_SKIN): 1.078
AUC (COLO800_SKIN): 1.008
AUC (CORL23_LUNG): 1.07
AUC (CORL105_LUNG): 1.1478
AUC (COV362_OVARY): 1.091
AUC (COV434_OVARY): 0.9992
AUC (DANG_PANCREAS): 1.066
AUC (DAOY_CENTRAL_NERVOUS_SYSTEM): 0.9946
AUC (DBTRG05MG_CENTRAL_NERVOUS_SYSTEM): 1.141
AUC (DETROIT562_UPPER_AERODIGESTIVE_TRACT): 1.072
AUC (DKMG_CENTRAL_NERVOUS_SYSTEM): 1.0187
AUC (DMS273_LUNG): 1.134
AUC (DU145_PROSTATE): 1.137
AUC (DV90_LUNG): 0.9062
∆ (AUC, TP53 mutation vs WT; decreased sensitivity) (DepMap TP53 mutation annotation): not significantly associated
AUC (EBC1_LUNG): 1.133
AUC (ECGI10_OESOPHAGUS): 1.109
AUC (EFM192A_BREAST): 0.9815
AUC (EFO21_OVARY): 1.192
AUC (EFO27_OVARY): 1.165
AUC (EN_ENDOMETRIUM): 1.137
AUC (ES2_OVARY): 1.077
AUC (ESS1_ENDOMETRIUM): 1.338
AUC (EWS502_BONE): 1.036
AUC (FADU_UPPER_AERODIGESTIVE_TRACT): 1.234
AUC (FTC133_THYROID): 0.9765
AUC (FTC238_THYROID): 0.9864
AUC (G292CLONEA141B1_BONE): 1.035
AUC (G361_SKIN): 1.116
AUC (G401_SOFT_TISSUE): 0.7376
AUC (G402_SOFT_TISSUE): 0.8902
AUC (GAMG_CENTRAL_NERVOUS_SYSTEM): 1.162
AUC (GB1_CENTRAL_NERVOUS_SYSTEM): 1.065
AUC (GCIY_STOMACH): 0.9556
AUC (GCT_SOFT_TISSUE): 1.093
AUC (GI1_CENTRAL_NERVOUS_SYSTEM): 0.984
AUC (GMS10_CENTRAL_NERVOUS_SYSTEM): 0.9403
AUC (GOS3_CENTRAL_NERVOUS_SYSTEM): 0.9659
AUC (GP2D_LARGE_INTESTINE): 1.185
AUC (H4_CENTRAL_NERVOUS_SYSTEM): 1.05
AUC (HARA_LUNG): 1.202
AUC (HCC15_LUNG): 1.143
AUC (HCC38_BREAST): 1.103
AUC (HCC44_LUNG): 1.112
AUC (HCC56_LARGE_INTESTINE): 1.103
AUC (HCC78_LUNG): 1.106
AUC (HCC95_LUNG): 1.096
AUC (HCC366_LUNG): 1.065
AUC (HCC827_LUNG): 0.9535
AUC (HCC1143_BREAST): 1.163
AUC (HCC1195_LUNG): 0.8866
AUC (HCC1359_LUNG): 1.197
AUC (HCC1419_BREAST): 1.107
AUC (HCC1428_BREAST): 0.9597
